In the supplement of paper PMC13207355:
± gives the standard deviation of the averaged measurements.

Experiments:
Settings in all cases: exposure time: 72 h
E21 [1] = patient-derived glioblastoma stem cells of mesenchymal subtype; assay: phenotypic distance (Euclidean, principal components) from DMSO controls (arbitrary units); higher = stronger morphological change
E28 [2] = patient-derived glioblastoma stem cells of classical subtype; assay: as above
E34 [3] = patient-derived glioblastoma stem cells of proneural subtype; assay: as above
FT3469 [4] = normal neural stem cell line; assay: as above
E13 [5] = patient-derived glioblastoma stem cells of classical subtype; assay: as above
E57 [6] = patient-derived glioblastoma stem cells of mesenchymal subtype; assay: as above
E21 [7] = assay: surviving fraction (nuclei count normalised to DMSO); higher = more cells surviving (less toxic)
E28 [8] = assay: as above
E34 [9] = assay: as above
FT3469 [10] = assay: as above
E13 [11] = assay: as above
E57 [12] = assay: as above
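For phenotypic distance (Euclidean, principal components) from DMSO controls in this document: cell Painting imaging in 384-well plates, CellProfiler features reduced to at least 20 principal components, Euclidean distance versus same-plate DMSO vehicle wells (0.1% v/v), median over six images per well.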
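For surviving fraction (nuclei count normalised to DMSO) in this document: nuclei counted by high-content imaging of Hoechst-stained cells in laminin-coated 384-well plates, relative to 0.1% DMSO vehicle wells, with staurosporine as cell-death control.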

With `Cc1ccc(NC(=O)c2ccc3c(c2)OCCO3)cc1NC(=O)c1ccc2nc(OCCN3CCCC3)ccc2c1` the phenotypic distance (E21 [1]; 4.1 nM) was 1.96, the phenotypic distance (E21 [1]; 4.11523 nM) was 2.3 and the phenotypic distance (E21 [1]; 12.3 nM) was 3.3. For the same compound, the phenotypic distance (E21 [1]; 12.34567901 nM) was 2.79, the phenotypic distance (E21 [1]; 37 nM) was 4.37 and the phenotypic distance (E21 [1]; 37.037 nM) was 3.31. For the same compound, the phenotypic distance (E21 [1]; 111.1 nM) was 5.55, the phenotypic distance (E21 [1]; 111.1111111 nM) was 4.4 and the phenotypic distance (E21 [1]; 333.3 nM) was 4.63. The phenotypic distance (E21 [1]; 333.333 nM) was 5.16, the phenotypic distance (E21 [1]; 1000 nM) was 4.03 ± 0.4 and the phenotypic distance (E21 [1]; 3000 nM) was 3.92 ± 0.23. The phenotypic distance (E28 [2]; 4.1 nM) was 2.24, the phenotypic distance (E28 [2]; 4.11523 nM) was 2.33 and the phenotypic distance (E28 [2]; 12.3 nM) was 3.06. It also gave a phenotypic distance (E28 [2]; 12.34567901 nM) of 2.58, a phenotypic distance (E28 [2]; 37 nM) of 3.23 and a phenotypic distance (E28 [2]; 37.037 nM) of 2.95. It also gave a phenotypic distance (E28 [2]; 111.1 nM) of 3.14, a phenotypic distance (E28 [2]; 111.1111111 nM) of 2.92 and a phenotypic distance (E28 [2]; 333.3 nM) of 2.79. The phenotypic distance (E28 [2]; 333.333 nM) was 3.14, the phenotypic distance (E28 [2]; 1000 nM) was 2.41 ± 0.13 and the phenotypic distance (E28 [2]; 3000 nM) was 2.42 ± 0.22. For the same compound, the phenotypic distance (E34 [3]; 4.1 nM) was 1.52, the phenotypic distance (E34 [3]; 4.11523 nM) was 2.43 and the phenotypic distance (E34 [3]; 12.3 nM) was 2.63. It also gave a phenotypic distance (E34 [3]; 12.34567901 nM) of 1.82, a phenotypic distance (E34 [3]; 37 nM) of 2.02 and a phenotypic distance (E34 [3]; 37.037 nM) of 2.96. For the same compound, the phenotypic distance (E34 [3]; 111.1 nM) was 2.75, the phenotypic distance (E34 [3]; 111.1111111 nM) was 2.28 and the phenotypic distance (E34 [3]; 333.3 nM) was 3. The phenotypic distance (E34 [3]; 333.333 nM) was 3.8, the phenotypic distance (E34 [3]; 1000 nM) was 2.97 ± 0.25 and the phenotypic distance (E34 [3]; 3000 nM) was 3.82 ± 0.7. For the same compound, the phenotypic distance (FT3469 [4]; 4.1 nM) was 2.71, the phenotypic distance (FT3469 [4]; 4.11523 nM) was 2.72 and the phenotypic distance (FT3469 [4]; 12.3 nM) was 3.04. It also gave a phenotypic distance (FT3469 [4]; 12.34567901 nM) of 2.97, a phenotypic distance (FT3469 [4]; 37 nM) of 3.5 and a phenotypic distance (FT3469 [4]; 37.037 nM) of 3.59. It also gave a phenotypic distance (FT3469 [4]; 111.1 nM) of 3.07, a phenotypic distance (FT3469 [4]; 111.1111111 nM) of 3.24 and a phenotypic distance (FT3469 [4]; 333.3 nM) of 4.42. For the same compound, the phenotypic distance (FT3469 [4]; 333.333 nM) was 3.16, the phenotypic distance (FT3469 [4]; 1000 nM) was 2.96 ± 0.38 and the phenotypic distance (FT3469 [4]; 3000 nM) was 3.35 ± 0.2. For the same compound, the phenotypic distance (E13 [5]; 4.1 nM) was 2.33, the phenotypic distance (E13 [5]; 4.11523 nM) was 2.3 and the phenotypic distance (E13 [5]; 12.3 nM) was 2.75. It also gave a phenotypic distance (E13 [5]; 12.34567901 nM) of 2.91, a phenotypic distance (E13 [5]; 37 nM) of 2.97 and a phenotypic distance (E13 [5]; 37.037 nM) of 2.96. The phenotypic distance (E13 [5]; 111.1 nM) was 2.97, the phenotypic distance (E13 [5]; 111.1111111 nM) was 2.53 and the phenotypic distance (E13 [5]; 333.3 nM) was 3.19. The phenotypic distance (E13 [5]; 333.333 nM) was 3.19, the phenotypic distance (E13 [5]; 1000 nM) was 4.14 ± 0.19 and the phenotypic distance (E13 [5]; 3000 nM) was 4.93 ± 0.2. The phenotypic distance (E57 [6]; 4.1 nM) was 2.44, the phenotypic distance (E57 [6]; 4.11523 nM) was 2.93 and the phenotypic distance (E57 [6]; 12.3 nM) was 3.38. The phenotypic distance (E57 [6]; 12.34567901 nM) was 3.54, the phenotypic distance (E57 [6]; 37 nM) was 3.19 and the phenotypic distance (E57 [6]; 37.037 nM) was 3.43. It also gave a phenotypic distance (E57 [6]; 111.1 nM) of 3.22, a phenotypic distance (E57 [6]; 111.1111111 nM) of 3.19 and a phenotypic distance (E57 [6]; 333.3 nM) of 3.67. The phenotypic distance (E57 [6]; 333.333 nM) was 3.36, the phenotypic distance (E57 [6]; 1000 nM) was 3.79 ± 0.25 and the phenotypic distance (E57 [6]; 3000 nM) was 3.67 ± 0.63. For the same compound, the surviving fraction (E21 [7]; 4.1 nM) was 0.572, the surviving fraction (E21 [7]; 4.11523 nM) was 0.511 and the surviving fraction (E21 [7]; 12.3 nM) was 0.385. It also gave a surviving fraction (E21 [7]; 12.34567901 nM) of 0.434, a surviving fraction (E21 [7]; 37 nM) of 0.402 and a surviving fraction (E21 [7]; 37.037 nM) of 0.406. For the same compound, the surviving fraction (E21 [7]; 111.1 nM) was 0.276, the surviving fraction (E21 [7]; 111.1111111 nM) was 0.306 and the surviving fraction (E21 [7]; 333.3 nM) was 0.28. For the same compound, the surviving fraction (E21 [7]; 333.333 nM) was 0.23, the surviving fraction (E21 [7]; 1000 nM) was 0.235 ± 0.024 and the surviving fraction (E21 [7]; 3000 nM) was 0.159 ± 0.015. It also gave a surviving fraction (E28 [8]; 4.1 nM) of 0.547, a surviving fraction (E28 [8]; 4.11523 nM) of 0.493 and a surviving fraction (E28 [8]; 12.3 nM) of 0.385. The surviving fraction (E28 [8]; 12.34567901 nM) was 0.432, the surviving fraction (E28 [8]; 37 nM) was 0.366 and the surviving fraction (E28 [8]; 37.037 nM) was 0.346. For the same compound, the surviving fraction (E28 [8]; 111.1 nM) was 0.309, the surviving fraction (E28 [8]; 111.1111111 nM) was 0.32 and the surviving fraction (E28 [8]; 333.3 nM) was 0.309. The surviving fraction (E28 [8]; 333.333 nM) was 0.242, the surviving fraction (E28 [8]; 1000 nM) was 0.317 ± 0.089 and the surviving fraction (E28 [8]; 3000 nM) was 0.285 ± 0.066. The surviving fraction (E34 [9]; 4.1 nM) was 0.581, the surviving fraction (E34 [9]; 4.11523 nM) was 0.432 and the surviving fraction (E34 [9]; 12.3 nM) was 0.436. For the same compound, the surviving fraction (E34 [9]; 12.34567901 nM) was 0.574, the surviving fraction (E34 [9]; 37 nM) was 0.548 and the surviving fraction (E34 [9]; 37.037 nM) was 0.385. For the same compound, the surviving fraction (E34 [9]; 111.1 nM) was 0.505, the surviving fraction (E34 [9]; 111.1111111 nM) was 0.555 and the surviving fraction (E34 [9]; 333.3 nM) was 0.486. The surviving fraction (E34 [9]; 333.333 nM) was 0.376, the surviving fraction (E34 [9]; 1000 nM) was 0.494 ± 0.054 and the surviving fraction (E34 [9]; 3000 nM) was 0.464 ± 0.0053. It also gave a surviving fraction (FT3469 [10]; 4.1 nM) of 0.613, a surviving fraction (FT3469 [10]; 4.11523 nM) of 0.62 and a surviving fraction (FT3469 [10]; 12.3 nM) of 0.72. It also gave a surviving fraction (FT3469 [10]; 12.34567901 nM) of 0.67, a surviving fraction (FT3469 [10]; 37 nM) of 0.636 and a surviving fraction (FT3469 [10]; 37.037 nM) of 0.618. The surviving fraction (FT3469 [10]; 111.1 nM) was 0.608, the surviving fraction (FT3469 [10]; 111.1111111 nM) was 0.667 and the surviving fraction (FT3469 [10]; 333.3 nM) was 0.674. It also gave a surviving fraction (FT3469 [10]; 333.333 nM) of 0.615, a surviving fraction (FT3469 [10]; 1000 nM) of 0.602 ± 0.094 and a surviving fraction (FT3469 [10]; 3000 nM) of 0.484 ± 0.023. The surviving fraction (E13 [11]; 4.1 nM) was 0.567, the surviving fraction (E13 [11]; 4.11523 nM) was 0.579 and the surviving fraction (E13 [11]; 12.3 nM) was 0.474. For the same compound, the surviving fraction (E13 [11]; 12.34567901 nM) was 0.507, the surviving fraction (E13 [11]; 37 nM) was 0.421 and the surviving fraction (E13 [11]; 37.037 nM) was 0.402. The surviving fraction (E13 [11]; 111.1 nM) was 0.347, the surviving fraction (E13 [11]; 111.1111111 nM) was 0.456 and the surviving fraction (E13 [11]; 333.3 nM) was 0.332. The surviving fraction (E13 [11]; 333.333 nM) was 0.347, the surviving fraction (E13 [11]; 1000 nM) was 0.2728 ± 0.0027 and the surviving fraction (E13 [11]; 3000 nM) was 0.245 ± 0.025. The surviving fraction (E57 [12]; 4.1 nM) was 0.335, the surviving fraction (E57 [12]; 4.11523 nM) was 0.321 and the surviving fraction (E57 [12]; 12.3 nM) was 0.23. For the same compound, the surviving fraction (E57 [12]; 12.34567901 nM) was 0.214, the surviving fraction (E57 [12]; 37 nM) was 0.296 and the surviving fraction (E57 [12]; 37.037 nM) was 0.268. It also gave a surviving fraction (E57 [12]; 111.1 nM) of 0.215, a surviving fraction (E57 [12]; 111.1111111 nM) of 0.277 and a surviving fraction (E57 [12]; 333.3 nM) of 0.209. The surviving fraction (E57 [12]; 333.333 nM) was 0.246, the surviving fraction (E57 [12]; 1000 nM) was 0.199 ± 0.018 and the surviving fraction (E57 [12]; 3000 nM) was 0.17 ± 0.0023.
